{"source": "patent US20050002861A1", "about": "“Enhanced scintigraphic imaging agents for imaging of infection and inflammation” (priority 2003, published 2005)", "test_system": "muscle tissue infected by E. coli", "experiment": "E. coli rabbit infection model: infection uptake and biodistribution of Tc-99m PGC's", "assay_type": "in vivo, New Zealand White (NZW) rabbits", "conditions": "only some lysines replaced by arginine; compared with Tc-99m P1827H", "excerpt": "In yet another aspect of the present invention, the compositions of the invention are capable of achieving a favorable biodistribution that is characterized by a specific accumulation at the site to be imaged, e.g. in an infected muscle, and at the same time a low concentration in uninfected areas, such as normal muscle or blood. The biodistribution of the radiolabeled compositions of the invention may be expressed by means of an image contrast ratio. The image contrast ratio can be determined as the ratio Imax(infected muscle)/Imax(control muscle), hereinafter referred to as Imax:C, i.e., the maximum radioactivity accumulated in an infected muscle sample versus the maximum radioactivity accumulated in a control, i.e., uninfected, muscle sample. The radioactivity is measured as % of injected dose per gram of tissue/blood, i.e., % ID/g. For the determination of Imax values (and Iavg values; see below), the tissue or blood samples are divided into six parts of equal size/weight and the radioactivity in each of the six samples is counted. The sample with the highest radioactivity is used for the Imax value (the average of all six samples was used for Iavg). Imax (and Iavg) values are expressed as % ID/g. […]", "note": "Where no end group is shown, it is not given here."}
{"substance": "Ac-RRRRRCGCGGPLYKKIIKKLLES (cysteine pairing not given here) [P1828]", "values": [{"measurement": "improvement over Tc-99m P1827H", "value": "no significant improvement"}]}
{"substance": "Ac-KKKKKCGCGGPLYRRIIRRLLES (cysteine pairing not given here) [P1829]", "values": [{"measurement": "improvement over Tc-99m P1827H", "value": "no significant improvement"}]}
